By IC50 is commonly meant the concentration that gives 50% inhibition. By EC50 is commonly meant the midpoint of the concentration-response curve. A higher EC50 goes with weaker potency.

Structures are written as SMILES.

This note sets out measurements from ChEMBL document CHEMBL4138256, “Design, Synthesis, and Biological Activity of 1,2,3-Triazolobenzodiazepine BET Bromodomain Inhibitors” (ACS Med Chem Lett, 2017).

In assay [1] the target is T1, Bromodomain-containing protein 2 (Homo sapiens, UniProt P25440). The experiment in a line: Inhibition of human His-tagged Brd2 bromodomain 1 expressed in Escherichia coli BL21 (DE3) preincubated for 30 mins followed by addition of biotinylated acetyl-histone H4 peptide and measured after 1 hr by AlphaScreen assay.
Target sequence in this assay (P25440 whole entry): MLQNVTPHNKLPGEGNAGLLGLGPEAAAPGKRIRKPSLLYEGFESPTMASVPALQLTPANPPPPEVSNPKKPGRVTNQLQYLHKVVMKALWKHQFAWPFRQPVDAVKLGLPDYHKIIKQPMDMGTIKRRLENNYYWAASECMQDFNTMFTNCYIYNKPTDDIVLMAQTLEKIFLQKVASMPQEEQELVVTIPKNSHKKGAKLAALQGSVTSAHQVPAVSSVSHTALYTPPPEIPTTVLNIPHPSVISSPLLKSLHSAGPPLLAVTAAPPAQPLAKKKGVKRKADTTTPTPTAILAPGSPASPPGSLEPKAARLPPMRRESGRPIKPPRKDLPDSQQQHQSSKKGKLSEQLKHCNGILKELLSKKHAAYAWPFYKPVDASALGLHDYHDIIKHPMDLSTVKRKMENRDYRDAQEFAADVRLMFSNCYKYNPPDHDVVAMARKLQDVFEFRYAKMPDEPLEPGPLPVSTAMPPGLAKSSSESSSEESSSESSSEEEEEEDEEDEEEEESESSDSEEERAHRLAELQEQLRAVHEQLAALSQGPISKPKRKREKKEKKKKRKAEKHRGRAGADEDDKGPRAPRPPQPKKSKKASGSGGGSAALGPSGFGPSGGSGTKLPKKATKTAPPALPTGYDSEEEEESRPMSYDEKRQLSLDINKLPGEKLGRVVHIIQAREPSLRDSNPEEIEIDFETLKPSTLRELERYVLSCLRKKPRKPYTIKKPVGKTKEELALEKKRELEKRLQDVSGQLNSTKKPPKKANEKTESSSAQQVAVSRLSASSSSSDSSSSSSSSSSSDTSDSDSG
In assay [2] the target is T1, Bromodomain-containing protein 2. The assay is described as follows: Inhibition of human His-tagged Brd2 bromodomain 2 expressed in Escherichia coli BL21 (DE3) preincubated for 30 mins followed by addition of biotinylated acetyl-histone H4 peptide and measured after 1 hr by AlphaScreen assay. On the technique in general: In Alpha technology, singlet oxygen from a donor bead excites a nearby acceptor bead.
Target sequence in this assay (P25440 whole entry): as above

For assay [3], the target named is Bromodomain-containing protein 3 (Homo sapiens, UniProt Q15059). The experiment in a line: Inhibition of human His-tagged Brd3 bromodomain 1 expressed in Escherichia coli BL21 (DE3) preincubated for 30 mins followed by addition of biotinylated acetyl-histone H4 peptide and measured after 1 hr by AlphaScreen assay.
Sequence of Bromodomain-containing protein 3 (Q15059 whole entry): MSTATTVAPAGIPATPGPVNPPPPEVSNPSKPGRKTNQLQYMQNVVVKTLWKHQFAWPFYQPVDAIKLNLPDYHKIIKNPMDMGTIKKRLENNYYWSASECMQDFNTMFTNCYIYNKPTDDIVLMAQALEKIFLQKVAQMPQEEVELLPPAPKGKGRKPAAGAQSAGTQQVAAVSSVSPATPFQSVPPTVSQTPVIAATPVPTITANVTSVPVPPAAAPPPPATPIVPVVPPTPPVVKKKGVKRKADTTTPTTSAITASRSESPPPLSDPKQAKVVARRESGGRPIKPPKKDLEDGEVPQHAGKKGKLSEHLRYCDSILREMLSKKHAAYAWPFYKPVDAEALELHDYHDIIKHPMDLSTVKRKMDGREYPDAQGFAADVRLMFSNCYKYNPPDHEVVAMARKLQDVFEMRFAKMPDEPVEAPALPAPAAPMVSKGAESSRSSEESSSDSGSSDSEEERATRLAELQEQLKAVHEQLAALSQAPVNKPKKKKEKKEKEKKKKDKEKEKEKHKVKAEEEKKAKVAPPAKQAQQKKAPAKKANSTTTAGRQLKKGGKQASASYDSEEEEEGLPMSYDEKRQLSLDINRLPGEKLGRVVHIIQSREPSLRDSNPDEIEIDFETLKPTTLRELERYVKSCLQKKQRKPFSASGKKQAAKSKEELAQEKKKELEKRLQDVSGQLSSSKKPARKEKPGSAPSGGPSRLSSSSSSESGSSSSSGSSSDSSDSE
The test system of another assay is MV4-11. The experiment in a line: Antiproliferative activity against human MV4-11 cells after 72 hrs by Cell-TiterGlo assay. The conditions noted are these: MV4-11, 72 h. The assay is classed as functional, cell-based.
Assay [4] in a line: Antiproliferative activity against mouse 148I cells after 72 hrs by Cell-TiterGlo assay. The assay is classed as functional, cell-based.
Another assay relates to K562. The experiment in a line: Antiproliferative activity against human K562 cells after 72 hrs by Cell-TiterGlo assay. Conditions: K562, 72 h. The assay is classed as functional, cell-based.
Assay [5] concerns the target T2, Bromodomain-containing protein 4 (Homo sapiens, UniProt O60885).
Description: Inhibition of human His-tagged Brd4 bromodomain 1 expressed in Escherichia coli BL21 (DE3) preincubated for 30 mins followed by addition of biotinylated acetyl-histone H4 peptide and measured after 1 hr by AlphaScreen assay
The next assay concerns SUD4. The assay is described as follows: Antiproliferative activity against human SU-DHL4 cells after 72 hrs by Cell-TiterGlo assay. The conditions noted are these: SU-DHL-4, 72 h. The assay is classed as functional, cell-based.
The target of assay [6] is T2, Bromodomain-containing protein 4. This is another data set of the same source.
Description: Inhibition of human His-tagged Brd4 bromodomain 2 expressed in Escherichia coli BL21 (DE3) preincubated for 30 mins followed by addition of biotinylated acetyl-histone H4 peptide and measured after 1 hr by AlphaScreen assay
Assay [7] can be described thus: Antiproliferative activity against human MLL-AF9 cells after 72 hrs by Cell-TiterGlo assay. The assay is classed as functional, cell-based. The conditions noted are these: MLL-AF9, 72 h.
Another assay concerns RPMI-8226. The experiment in a line: Antiproliferative activity against human RPMI8226 cells after 72 hrs by Cell-TiterGlo assay. The assay is classed as functional, cell-based. The conditions noted are these: RPMI-8226, 72 h.
The subject of a further assay is HEL 92.1.7. The experiment in a line: Antiproliferative activity against human HEL 92.1.7 cells after 72 hrs by Cell-TiterGlo assay. The assay is classed as functional, cell-based. Conditions: HEL 92.1.7, 72 h.
Assay [8] can be described thus: Antiproliferative activity against mouse 494H cells after 72 hrs by Cell-TiterGlo assay. The assay is classed as functional, cell-based.
The subject of the next assay is Raji. The experiment in a line: Antiproliferative activity against human Raji cells after 72 hrs by Cell-TiterGlo assay. The assay is classed as functional, cell-based.
Another assay deals with HL-60. The experiment in a line: Antiproliferative activity against human HL60 cells after 72 hrs by Cell-TiterGlo assay. Conditions: HL-60, 72 h. The assay is classed as functional, cell-based.
The next assay has as its system CCRF-CEM. The assay is described as follows: Antiproliferative activity against human CCRF-CEM cells after 72 hrs by Cell-TiterGlo assay. The assay is classed as functional, cell-based.
Another assay concerns DOHH-2. The assay is described as follows: Antiproliferative activity against human DOHH2 cells after 72 hrs by Cell-TiterGlo assay. The assay is classed as functional, cell-based. The conditions noted are these: DOHH-2, 72 h.
The target in assay [9] is T1, Bromodomain-containing protein 2.
Target sequence in this assay (P25440 whole entry, looked up): as the sequence (P25440 whole entry) above
Description: Binding affinity to His-tagged human Brd2 bromodomain 1 (1 to 473 residues) assessed as association rate constant by suface plasmon resonance assay
For assay [10] the target is unchanged. The source holds these as a separate data set.
Target sequence in this assay (P25440 whole entry, looked up): as the sequence (P25440 whole entry) above
Description: Binding affinity to His-tagged human Brd2 bromodomain 2 (1 to 473 residues) assessed as association rate constant by surface plasmon resonance assay

For `Cc1nnn2c1-c1ccc(C(=O)NC(c3ccccc3)c3ccccc3)cc1N(c1ccc(Cl)cc1)CC2`, the IC50 in [1] came out at 151 nM; in assay [2] it was 44 nM; in assay [3] it was 39 nM.
Take `Cc1nnn2c1-c1ccc(-c3cc[nH]n3)cc1N(c1ccc(Cl)cc1)CC2`: the EC50 in the assay with MV4-11 is 200 nM; in assay [4], 973 nM; with K562 it was greater than 10000 nM; in the assay on SUD4 it was 570 nM; in [7] it was 111 nM; with RPMI-8226 it was 495 nM. Besides, the EC50 in the assay with HEL 92.1.7 is 720 nM; in assay [8] it was 194 nM; in the assay with Raji, 780 nM; in the assay with HL-60 it was 139 nM; in the assay on CCRF-CEM it was 2220 nM; in the assay with DOHH-2, 285 nM. Also, the IC50 in [5] was determined as 14 nM; in [6], 7 nM; in [3] it was 10 nM.
`Cc1ccc(-c2ccc3c(c2)N(c2ccc(Cl)cc2)CCn2nnc(C)c2-3)cn1`: the IC50 in [5] came out at 16 nM; in assay [6] it was 7 nM; in [3], 10 nM.
Take `Cc1nnn2c1-c1ccc(C(O)C(F)(F)F)cc1N(c1ccc(Cl)cc1)CC2` (stereo not drawn): the results for the IC50 in assay [5] and in [6] were 43 nM and 23 nM, respectively.
Regarding `Cc1nnn2c1-c1ccc(C(=O)NS(C)(=O)=O)cc1N(c1ccc(Cl)cc1)CC2`, the IC50 in assay [5] came to 13 nM; in [6], 7 nM.
Consider `Cc1nnn2c1-c1ccc(Cn3cccn3)cc1N(c1ccc(Cl)cc1)CC2`, for which the results for the IC50 in assay [5], in assay [6] and in [3] were 45 nM, 38 nM and 52 nM, respectively.
Consider `Cc1nnn2c1-c1ccc(-c3nn[nH]n3)cc1N(c1ccc(Cl)cc1)CC2`, for which the IC50 in assay [5] stood at 3 nM; in [6], 2 nM.
In the case of `Cc1sc2c(c1C)C(c1ccc(Cl)cc1)=NC(CC(=O)OC(C)(C)C)c1nnc(C)n1-2` (stereo not drawn), the EC50 was 39 nM with MV4-11; 284 nM in assay [4]; greater than 10000 nM in the assay with K562; 660 nM in the assay with SUD4; 64 nM in assay [7]; 258 nM in the assay on RPMI-8226. In addition, the EC50 came out at 180 nM with HEL 92.1.7; 122 nM in assay [8]; 330 nM with Raji; 51 nM in the assay on HL-60; 2040 nM in the assay with CCRF-CEM; 279 nM with DOHH-2.
For the molecule `Cc1nnn2c1-c1ccccc1N(c1ccc(Cl)cc1)CC2CCO` (stereo not drawn), the IC50 in assay [1] was 340 nM; in [2], 45 nM; in assay [5] it was 52 nM; in assay [6] it was 36 nM; in [3], 44 nM.
Consider `Cc1nnn2c1-c1ccccc1N(c1ccc(Cl)cc1)C[C@@H]2C`, for which the IC50 was 53 nM in [1] and 34 nM in assay [2].
Regarding `Cc1nnn2c1-c1ccc(C(N)=O)cc1N(c1ccc(Cl)cc1)CC2`, the IC50 in [5] worked out at 6 nM; in [6], 2 nM.
`Cc1nnn2c1-c1ccc(C(=O)Nc3ccccc3)cc1N(c1ccc(Cl)cc1)CC2`: in assay [3], 14 nM corresponded to half-maximal inhibition (IC50).
As to `Cc1nnn2c1-c1ccccc1N(c1ccccc1)CC2`, the values for the IC50 in assay [5] and in assay [6] were 28 to 39.4 nM and 12 to 21.5 nM, respectively.
In [3], `Cc1nnn2c1-c1ccc(C(=O)N[C@@H](C)c3ccccc3)cc1N(c1ccc(Cl)cc1)CC2` returned an IC50 of 12 nM. This lies in the double-digit nanomolar range.
Take `Cc1nnn2c1-c1ccc(C(=O)NCc3ccccc3)cc1N(c1ccc(Cl)cc1)CC2`: the results for the IC50 in assay [5] and in assay [6] were 35 nM and 15 nM, respectively.
Consider `Cc1nnn2c1-c1ccc(-c3ccc(N)nc3)cc1N(c1ccc(Cl)cc1)CC2`, for which the EC50 is 140 nM in the assay with MV4-11; 1280 nM in assay [4]; greater than 10000 nM in the assay with K562; 977 nM with SUD4; 77 nM in assay [7]; 631 nM with RPMI-8226. Further, the EC50 stood at 400 nM in the assay with HEL 92.1.7; 166 nM in assay [8]; 560 nM with Raji; 152 nM in the assay with HL-60; 1360 nM in the assay on CCRF-CEM; 561 nM in the assay with DOHH-2. For the same molecule, the IC50 amounted to 13 nM in assay [5], 6 nM in [6] and 9 nM in [3]. The Ka in assay [9] stood at 2.9 ×10⁵ /M/s; in [10], 2.62 ×10⁵ /M/s.
Molecule `Cc1nnn2c1-c1ccc(C(=O)N[C@@H](C)c3ccc(F)cc3)cc1N(c1ccc(Cl)cc1)CC2` registered an IC50 in [3] of 23 nM.
`Cc1nnn2c1-c1ccccc1N(c1ccccc1)C(=O)C2`: the concentration for half-maximal inhibition (IC50) in assay [1], in [2], in assay [5], in [6] and in [3] was greater than 10000 nM throughout.
As to `Cc1nnn2c1-c1ccccc1N(Cc1cccc(Br)c1)CC2`, the IC50 was 129 nM in assay [1]; 44 nM in assay [2]; 29 nM in [5]; 17 nM in [6]; 21 nM in [3].
As for `Cc1nnn2c1-c1ccc(C(=O)NS(=O)(=O)c3ccccc3)cc1N(c1ccc(Cl)cc1)CC2`, the IC50 in [1] came to 54 nM; in assay [2] it was 25 nM; in [5], 21 nM; in [6], 10 nM; in [3], 21 nM.
Take `Cc1nnn2c1-c1ccc(C(=O)N[C@H](C)c3ccccc3)cc1N(c1ccc(Cl)cc1)CC2`: half-maximal inhibition in assay [3] (IC50) was put at 13 nM.
Take `Cc1nnn2c1-c1ccccc1N(c1ccc(Cl)cc1)C[C@H]2C`: the figures for the IC50 in assay [1] and in [2] were 38 nM and 25 nM, respectively.
For the molecule `Cc1nnn2c1-c1ccc(C#N)cc1N(c1ccc(Cl)cc1)CC2`, the results for the IC50 in assay [5] and in assay [6] were 11 nM and 13 nM, respectively.
For the molecule `Cc1nnn2c1-c1ccc(C(=O)O)cc1N(c1ccc(Cl)cc1)CC2`, the IC50 in assay [1] came to 185 nM; in [2] it was 50 nM; in [3], 16 nM.
